Reference: patent US20070249562A1, “TREATMENT OF ATRIAL FIBRILLATION” (priority 2006, published 2007)

Tests used:
[1] = in water, alcohol, and ether; cited from earlier work
Atrial Fibrillation = assay: Randomized, double-blind placebo-controlled study in high-risk CABG patients; atrial fibrillation by 12-lead ECG; assay type: in vivo, human; conditions: for Reduction of AF compared to placebo: from POD 4 to POD 90
Source text: A randomized, double-blind placebo-controlled, dose-ranging, parallel-arm multi-center study was undertaken, on high-risk patients undergoing CABG surgery with cardiopulmonary bypass. Patients were identified as “high risk” if they had two or more of the following risk factors: • Age greater than 65 years • Current smoker • History of diabetes mellitus requiring treatment other than diet • Evidence of left ventricular dysfunction or congestive heart failure • History of a previous non-disabling stroke, transient ischemic attack, or carotid endarterectomy • Urgent CABG intervention defined as the need to stay in the hospital (although the patient may be operated on within a normal scheduling routine). • History of myocardial infarction that occurred more than 48 hours but less than 6 weeks prior to CABG surgery • Prior peripheral artery surgery or angioplasty • Moderate renal dysfunction defined as […] >133 μmol/L (1.5 mg/dl), but <250 μmol/L (2.8 mg/dl) • Presence of at least one asymptomatic carotid artery stenosis (>50% ) either in one or two carotid arteries. Approximately 900 high risk pre-CABG patients in 42 different treatment centers in North America were screened and randomized to three groups of approximately 300 patients each, prior to their bypass surgery, as follows. Patients were either placed in a control group (placebo), treated with 250 mg/day of pyridoxal-5′-phosphate, (250 mg/day), or treated with 750 mg day of pyridoxal-5′-phosphate (750 mg/day). The first dose of study medication was administered at 3-10 hours prior to CABG surgery. In the event of surgery delay or rescheduling, a second pre-operative dose of pyridoxal-5′-phosphate was administered so that all patients received study medication 3-10 hours before surgery. Treatment continued for 30 days after surgery (post operative day (POD) 30). Patients received follow-up evaluations up to and including postoperative day (POD) 4, on POD 30 and on POD 90. 12-lead ECG were taken at baseline (Pre-Op), POD 2, POD 4, POD 30 and POD 90 with patients on placebo, 250 mg/day pyridoxal-5′-phosphate (P5P), and 750 mg/day pyridoxal-5′-phosphate. The data from baseline, POD 4 and POD 90 were analyzed.

[2] = test system: ATP induced calcium ion influx into cells (P2X purinoceptors); conditions: a recent evaluation; suggested due to inhibition of P2X purinoceptors; cited from earlier work

In the case of `Cc1ncc(COP(=O)(O)O)c(C=O)c1O` [pyridoxal-5′-phosphate, 3-hydroxy-2-methyl-5-[(phosphonooxy)methyl]-4-pyridine-carboxaldehyde], the Solubility [1] is given as “essentially insoluble”, the “Reduction of AF compared to placebo” value (Atrial Fibrillation; 250 mg dose, p=0.0084) is given as 51.75% and the “Reduction of AF compared to placebo” value (Atrial Fibrillation; 750 mg dose, p=0.013) is given as 49.08%. For the same compound, the “Number of patients who had AF at POD 4” value (Atrial Fibrillation; 250 mg/day P5P (n = 301)) was 56, the “Percent of patients who had AF at POD 4” value (Atrial Fibrillation; 250 mg/day P5P (n = 301)) was 18.60% and the “Number of patients who had AF at POD 4” value (Atrial Fibrillation; 750 mg/day P5P (n = 302)) was 63. For the same compound, the “Percent of patients who had AF at POD 4” value (Atrial Fibrillation; 750 mg/day P5P (n = 302)) was 20.86%, the “Number of patient who had AF at POD 90” value (Atrial Fibrillation; 250 mg/day P5P (n = 301)) was 17 and the “Percent of patient who had AF at POD 90” value (Atrial Fibrillation; 250 mg/day P5P (n = 301)) was 5.65%. For the same compound, the “Number of patient who had AF at POD 90” value (Atrial Fibrillation; 750 mg/day P5P (n = 302)) was 18, the “Percent of patient who had AF at POD 90” value (Atrial Fibrillation; 750 mg/day P5P (n = 302)) was 5.96% and the “Effect on ATP induced calcium ion influx into cells” value [2] was “inhibits”.
